In ChEMBL document CHEMBL3734667 (Bioorg Med Chem, 2015):

System: not listed separately
Assay: Cytotoxicity against human MT4 cells assessed as cell viability after 96 hrs by MTT assay
Assay type: cell-based
Conditions: not given
In the case of `CC(C)(Oc1ccc(-n2nc3ccc(Cl)cc3n2)cc1)C(=O)O`, the CC50 at 96 h is reported as > 100 µM. In the case of `Clc1ccc(Cn2nc3cc(Cl)c(Cl)cc3n2)cc1`, the CC50 at 96 h is reported as > 100 µM. For `COc1ccccc1N1CCN(CCCOc2ccc(-n3nc4ccc(C(F)(F)F)cc4n3)cc2)CC1`, the CC50 at 96 h was 100 µM. For `FC(F)(F)c1ccc2nn(Cc3ccc(Cl)cc3)nc2c1`, the CC50 at 96 h was > 100 µM. `CC(C)(CCCOc1ccc(-n2nc3ccc(Cl)cc3n2)cc1)C(=O)O` showed a CC50 at 96 h of 51 µM. With `FC(F)(F)c1ccc2nn(Cc3ccccc3)nc2c1` the CC50 at 96 h was > 100 µM.

System: not listed separately
Assay: Cytotoxicity against MDBK cells assessed as cell viability after 48 to 96 hrs by MTT assay
Assay type: cell-based, Bos taurus
Conditions: cattle
In the case of `CC(C)(Oc1ccc(-n2nc3ccc(Cl)cc3n2)cc1)C(=O)O`, the CC50 is reported as ≥ 100 µM. In the case of `Clc1ccc(Cn2nc3cc(Cl)c(Cl)cc3n2)cc1`, the CC50 is reported as > 100 µM. With `COc1ccccc1N1CCN(CCCOc2ccc(-n3nc4ccc(C(F)(F)F)cc4n3)cc2)CC1` the CC50 was > 100 µM. For `FC(F)(F)c1ccc2nn(Cc3ccc(Cl)cc3)nc2c1`, the CC50 was > 100 µM. For `CC(C)(CCCOc1ccc(-n2nc3ccc(Cl)cc3n2)cc1)C(=O)O`, the CC50 was 32 µM. With `FC(F)(F)c1ccc2nn(Cc3ccccc3)nc2c1` the CC50 was > 100 µM.

System: not listed separately
Assay: Cytotoxicity against BHK cells assessed as cell viability after 48 to 96 hrs by MTT assay
Assay type: cell-based, Mesocricetus auratus
Conditions: hamster
Molecule `CC(C)(Oc1ccc(-n2nc3ccc(Cl)cc3n2)cc1)C(=O)O` has a CC50 of 75 µM. With `Clc1ccc(Cn2nc3cc(Cl)c(Cl)cc3n2)cc1` the CC50 was > 100 µM. For `COc1ccccc1N1CCN(CCCOc2ccc(-n3nc4ccc(C(F)(F)F)cc4n3)cc2)CC1`, the CC50 was > 100 µM. With `FC(F)(F)c1ccc2nn(Cc3ccc(Cl)cc3)nc2c1` the CC50 was > 100 µM. Molecule `CC(C)(CCCOc1ccc(-n2nc3ccc(Cl)cc3n2)cc1)C(=O)O` has a CC50 of 16 µM. For `FC(F)(F)c1ccc2nn(Cc3ccccc3)nc2c1`, the CC50 was > 100 µM.

System: not listed separately
Assay: Cytotoxicity against african green monkey Vero 76 cells assessed as cell viability after 48 to 96 hrs by crystal violet staining method
Assay type: cell-based
Conditions: chlorocebus sabaeus
Molecule `CC(C)(Oc1ccc(-n2nc3ccc(Cl)cc3n2)cc1)C(=O)O` has a CC50 of 70 µM. With `Clc1ccc(Cn2nc3cc(Cl)c(Cl)cc3n2)cc1` the CC50 was > 100 µM. `COc1ccccc1N1CCN(CCCOc2ccc(-n3nc4ccc(C(F)(F)F)cc4n3)cc2)CC1` showed a CC50 of 100 µM. In the case of `FC(F)(F)c1ccc2nn(Cc3ccc(Cl)cc3)nc2c1`, the CC50 is reported as > 100 µM. In the case of `CC(C)(CCCOc1ccc(-n2nc3ccc(Cl)cc3n2)cc1)C(=O)O`, the CC50 is reported as 15 µM. In the case of `FC(F)(F)c1ccc2nn(Cc3ccccc3)nc2c1`, the CC50 is reported as > 100 µM.

System: Bovine viral diarrhea virus 1
Assay: Antiviral activity against BVDV infected in MDBK cells assessed as inhibition of virus-induced cytopathogenicity after 3 to 4 days by MTT assay
Assay type: functional, organism-based
Conditions: Bovine viral diarrhea virus isolates and strains
In the case of `CC(C)(Oc1ccc(-n2nc3ccc(Cl)cc3n2)cc1)C(=O)O`, the EC50 is reported as > 100 µM. With `Clc1ccc(Cn2nc3cc(Cl)c(Cl)cc3n2)cc1` the EC50 was > 100 µM. For `COc1ccccc1N1CCN(CCCOc2ccc(-n3nc4ccc(C(F)(F)F)cc4n3)cc2)CC1`, the EC50 was > 100 µM. In the case of `FC(F)(F)c1ccc2nn(Cc3ccc(Cl)cc3)nc2c1`, the EC50 is reported as > 100 µM. For `CC(C)(CCCOc1ccc(-n2nc3ccc(Cl)cc3n2)cc1)C(=O)O`, the EC50 was > 100 µM. In the case of `FC(F)(F)c1ccc2nn(Cc3ccccc3)nc2c1`, the EC50 is reported as > 100 µM.

System: Yellow fever virus
Assay: Antiviral activity against YFV infected in BHK-21 cells assessed as inhibition of virus-induced cytopathogenicity after 3 to 4 days by MTT assay
Assay type: functional, organism-based
Conditions: not given
In the case of `CC(C)(Oc1ccc(-n2nc3ccc(Cl)cc3n2)cc1)C(=O)O`, the EC50 is reported as > 100 µM. For `Clc1ccc(Cn2nc3cc(Cl)c(Cl)cc3n2)cc1`, the EC50 was > 100 µM. In the case of `COc1ccccc1N1CCN(CCCOc2ccc(-n3nc4ccc(C(F)(F)F)cc4n3)cc2)CC1`, the EC50 is reported as > 100 µM. In the case of `FC(F)(F)c1ccc2nn(Cc3ccc(Cl)cc3)nc2c1`, the EC50 is reported as > 100 µM. For `CC(C)(CCCOc1ccc(-n2nc3ccc(Cl)cc3n2)cc1)C(=O)O`, the EC50 was > 100 µM. For `FC(F)(F)c1ccc2nn(Cc3ccccc3)nc2c1`, the EC50 was > 100 µM.

System: Mammalian orthoreovirus 1
Assay: Antiviral activity against Reo-1 virus infected in BHK-21 cells assessed as inhibition of virus-induced cytopathogenicity after 3 to 4 days by MTT assay
Assay type: functional, cell-based
Conditions: Mammalian orthoreovirus 1, BHK-21
For `Clc1ccc(Cn2nc3cc(Cl)c(Cl)cc3n2)cc1`, the EC50 was > 100 µM. For `COc1ccccc1N1CCN(CCCOc2ccc(-n3nc4ccc(C(F)(F)F)cc4n3)cc2)CC1`, the EC50 was > 100 µM. With `FC(F)(F)c1ccc2nn(Cc3ccc(Cl)cc3)nc2c1` the EC50 was > 100 µM. With `FC(F)(F)c1ccc2nn(Cc3ccccc3)nc2c1` the EC50 was > 100 µM.

System: Coxsackievirus B5
Assay: Antiviral activity against human CVB5 infected in african green monkey Vero76 cells assessed as inhibition of virus-induced cytopathogenicity after 3 days by plaque reduction assay
Assay type: functional, organism-based
Conditions: Enterovirus B, Vero 76, 72 h
For `CC(C)(Oc1ccc(-n2nc3ccc(Cl)cc3n2)cc1)C(=O)O`, the EC50 was > 100 µM. In the case of `Clc1ccc(Cn2nc3cc(Cl)c(Cl)cc3n2)cc1`, the EC50 is reported as > 100 µM. In the case of `COc1ccccc1N1CCN(CCCOc2ccc(-n3nc4ccc(C(F)(F)F)cc4n3)cc2)CC1`, the EC50 is reported as 53 µM. In the case of `FC(F)(F)c1ccc2nn(Cc3ccc(Cl)cc3)nc2c1`, the EC50 is reported as > 100 µM. `CC(C)(CCCOc1ccc(-n2nc3ccc(Cl)cc3n2)cc1)C(=O)O` gave an EC50 of 0.7 µM. For `FC(F)(F)c1ccc2nn(Cc3ccccc3)nc2c1`, the EC50 was > 100 µM.

System: Human orthopneumovirus
Assay: Antiviral activity against human RSV infected in african green monkey Vero76 cells assessed as inhibition of virus-induced cytopathogenicity after 5 days by plaque reduction assay
Assay type: functional, organism-based
Conditions: human respiratory syncytial virus, Vero 76, 120 h
Molecule `CC(C)(Oc1ccc(-n2nc3ccc(Cl)cc3n2)cc1)C(=O)O` has an EC50 of 25 µM. With `Clc1ccc(Cn2nc3cc(Cl)c(Cl)cc3n2)cc1` the EC50 was > 100 µM. With `COc1ccccc1N1CCN(CCCOc2ccc(-n3nc4ccc(C(F)(F)F)cc4n3)cc2)CC1` the EC50 was > 100 µM. For `FC(F)(F)c1ccc2nn(Cc3ccc(Cl)cc3)nc2c1`, the EC50 was > 100 µM. For `CC(C)(CCCOc1ccc(-n2nc3ccc(Cl)cc3n2)cc1)C(=O)O`, the EC50 was 2 µM. With `FC(F)(F)c1ccc2nn(Cc3ccccc3)nc2c1` the EC50 was > 100 µM.

System: Poliovirus 1
Assay: Antiviral activity against Human poliovirus 1 Sabin infected in african green monkey Vero76 cells assessed as inhibition of virus-induced cytopathogenicity by plaque reduction assay
Assay type: functional, organism-based
Conditions: Enterovirus C, Vero 76
In the case of `CC(C)(Oc1ccc(-n2nc3ccc(Cl)cc3n2)cc1)C(=O)O`, the EC50 is reported as > 100 µM. For `Clc1ccc(Cn2nc3cc(Cl)c(Cl)cc3n2)cc1`, the EC50 was > 100 µM. For `COc1ccccc1N1CCN(CCCOc2ccc(-n3nc4ccc(C(F)(F)F)cc4n3)cc2)CC1`, the EC50 was > 100 µM. With `FC(F)(F)c1ccc2nn(Cc3ccc(Cl)cc3)nc2c1` the EC50 was > 100 µM. For `CC(C)(CCCOc1ccc(-n2nc3ccc(Cl)cc3n2)cc1)C(=O)O`, the EC50 was > 100 µM. With `FC(F)(F)c1ccc2nn(Cc3ccccc3)nc2c1` the EC50 was > 100 µM.

System: not listed separately
Assay: Selectivity index, ratio of CC50 for african green monkey Vero76 cells to EC50 for human CVB5
Set-up: species or system Coxsackievirus B5, Vero 76
Conditions: not given
For `COc1ccccc1N1CCN(CCCOc2ccc(-n3nc4ccc(C(F)(F)F)cc4n3)cc2)CC1`, the “Ratio CC50/EC50” value was 1.89. For `CC(C)(CCCOc1ccc(-n2nc3ccc(Cl)cc3n2)cc1)C(=O)O`, the “Ratio CC50/EC50” value was 31.43.

System: not listed separately
Assay: Selectivity index, ratio of CC50 for african green monkey Vero76 cells to EC50 for human RSV
Set-up: species or system human respiratory syncytial virus, Vero 76
Conditions: not given
In the case of `CC(C)(Oc1ccc(-n2nc3ccc(Cl)cc3n2)cc1)C(=O)O`, the “Ratio CC50/EC50” value is reported as 2.8. For `CC(C)(CCCOc1ccc(-n2nc3ccc(Cl)cc3n2)cc1)C(=O)O`, the “Ratio CC50/EC50” value was 7.5.

System: Human immunodeficiency virus 1
Assay: Antiviral activity against HIV-1 infected in MT4 cells assessed as inhibition of virus-induced cytopathogenicity after 4 days by MTT assay
Assay type: functional, organism-based
Conditions: Human immunodeficiency virus 1, MT4, 96 h
With `CC(C)(Oc1ccc(-n2nc3ccc(Cl)cc3n2)cc1)C(=O)O` the EC50 was > 100 µM. For `Clc1ccc(Cn2nc3cc(Cl)c(Cl)cc3n2)cc1`, the EC50 was > 100 µM. For `COc1ccccc1N1CCN(CCCOc2ccc(-n3nc4ccc(C(F)(F)F)cc4n3)cc2)CC1`, the EC50 was > 100 µM. For `FC(F)(F)c1ccc2nn(Cc3ccc(Cl)cc3)nc2c1`, the EC50 was > 100 µM. With `CC(C)(CCCOc1ccc(-n2nc3ccc(Cl)cc3n2)cc1)C(=O)O` the EC50 was > 100 µM. For `FC(F)(F)c1ccc2nn(Cc3ccccc3)nc2c1`, the EC50 was > 100 µM.

System: Human alphaherpesvirus 1
Assay: Antiviral activity against HSV1
Assay type: functional, organism-based
Conditions: not given
In the case of `Clc1ccc(Cn2nc3cc(Cl)c(Cl)cc3n2)cc1`, the EC50 is reported as > 100 µM. For `FC(F)(F)c1ccc2nn(Cc3ccc(Cl)cc3)nc2c1`, the EC50 was > 100 µM. In the case of `FC(F)(F)c1ccc2nn(Cc3ccccc3)nc2c1`, the EC50 is reported as > 100 µM.

System: Vesicular stomatitis virus
Assay: Antiviral activity against VSV
Assay type: functional, organism-based
Conditions: not given
In the case of `CC(C)(Oc1ccc(-n2nc3ccc(Cl)cc3n2)cc1)C(=O)O`, the EC50 is reported as > 100 µM. For `Clc1ccc(Cn2nc3cc(Cl)c(Cl)cc3n2)cc1`, the EC50 was > 100 µM. For `COc1ccccc1N1CCN(CCCOc2ccc(-n3nc4ccc(C(F)(F)F)cc4n3)cc2)CC1`, the EC50 was > 100 µM. For `FC(F)(F)c1ccc2nn(Cc3ccc(Cl)cc3)nc2c1`, the EC50 was > 100 µM. With `CC(C)(CCCOc1ccc(-n2nc3ccc(Cl)cc3n2)cc1)C(=O)O` the EC50 was > 100 µM. For `FC(F)(F)c1ccc2nn(Cc3ccccc3)nc2c1`, the EC50 was > 100 µM.

System: Vaccinia virus
Assay: Antiviral activity against Vaccinia virus
Assay type: functional, organism-based
Conditions: Orthopoxvirus vaccinia
For `CC(C)(Oc1ccc(-n2nc3ccc(Cl)cc3n2)cc1)C(=O)O`, the EC50 was > 100 µM. In the case of `Clc1ccc(Cn2nc3cc(Cl)c(Cl)cc3n2)cc1`, the EC50 is reported as > 100 µM. With `COc1ccccc1N1CCN(CCCOc2ccc(-n3nc4ccc(C(F)(F)F)cc4n3)cc2)CC1` the EC50 was > 100 µM. For `FC(F)(F)c1ccc2nn(Cc3ccc(Cl)cc3)nc2c1`, the EC50 was > 100 µM. For `CC(C)(CCCOc1ccc(-n2nc3ccc(Cl)cc3n2)cc1)C(=O)O`, the EC50 was > 100 µM. With `FC(F)(F)c1ccc2nn(Cc3ccccc3)nc2c1` the EC50 was > 100 µM.
